Activity calls are given as the source filed them. No cut-off for these calls is given here.
Experiments:
Oryctolagus cuniculus = organism: Oryctolagus cuniculus; test: Inhibition of rabbit GSKbeta assessed as [32P]-phosphorylation of substrate up to 50 uM after 1 hr by scintillation counting
[1] = Inhibition of rabbit GSKbeta assessed as [32P]-phosphorylation of substrate after 1 hr by scintillation counting; set-up: species or system Oryctolagus cuniculus

inhibition (Oryctolagus cuniculus)	IC50 [1] [µM]	SMILES
inactive		CC(O)C[C@H](O)[C@H](O)C[C@H](O)CCC(=O)NCCS(=O)(=O)O (some centres undefined)
	12.5	CCCCC/C=C/C(O)CCCCC/C=C/C(O)CCCCCCCC(=O)OC(C)C[C@H](O)[C@H](O)C[C@H](O)CCC(=O)NCCS(=O)(=O)O (mixture of isomers) [CARTERIOSULFONIC ACID A]
	6.8	CCCCC/C=C/C(O)CCCCCCCCCCCCCC(=O)OC(C)C[C@H](O)[C@H](O)C[C@H](O)CCC(=O)NCCS(=O)(=O)O (mixture of isomers) [CARTERIOSULFONIC ACID C]
	6.8	CCCCC/C=C/C(O)CCCCC/C=C/C(CCCCCCCC(=O)OC(C)C[C@H](O)[C@H](O)C[C@H](O)CCC(=O)NCCS(=O)(=O)O)OC(C)=O (some centres undefined) [CARTERIOSULFONIC ACID B]

— ChEMBL document CHEMBL1154308, “Carteriosulfonic acids A-C, GSK-3beta inhibitors from a Carteriospongia sp” (J Nat Prod, 2009)
